Patent US11589584B2, “Synergistic combination of 1,3-bis(hydroxymethyl)-5,5-dimethylimidazolidine-2,4-dione with glyoxal” (MC (US) 3 LLC, priority 2018, dated 2023)

System: Pseudomonas aeruginosa (ATCC 8739) and Escherichia coli (ATCC 10145) mixed microorganism culture
Assay: Synergy in the planktonic phase: 48 h biocide challenge, regrowth read by turbidity in recovery media
Format: cell-based
Conditions: P. aeruginosa/E. coli mixed inoculum, phosphate buffer pH 7.3, 30° C., 48 hour challenge
Procedure: […] cultures were separately prepared from glycerol stocks. First they were streak plated and validated with a microscope. Single colonies were picked and used to inoculate 200 mL shake flasks that were grown statically overnight at 30° C. (30 grams/L Tryptic Soy Broth) to produce the initial inoculum of mixed microorganism culture. A deep-well 96 well challenge plate (2 mL maximum well volume) was prepared using 900 μL/well phosphate buffer at pH 7.3, (0.0027M potassium chloride, 0.137 M sodium chloride). Inoculation took place at the start of the experiments (with a 100 μL combined inoculum, adding to the 900 μL buffer to total 1 mL/well). […]
The inoculated assay block was challenged at 30° C. for 48 hours. […] This was done in triplicate for each point (the triplicate is already present in the biocide block viz. each point is truly determined in triplicate). […]
The recovery plates were subsequently read (checked for microbial growth) at 72 hours after addition of the culture, to recovery media. Ranking of biocidal efficacy was done by recording the development of turbidity within each well (determined by visual inspection). […] Ranking was done per average value of three data points determined per experiment. (Recorded in log regrowth).
Synergy Ratio Determined Using the Following Formulae. […]

| SMILES | DMDMH standalone 48 h pass (biocide used alone (QA)) [ppm] | Glyoxal standalone 48 h pass (used alone (QB)) [ppm] |
| --- | --- | --- |
| CC1(C)C(=O)N(CO)C(=O)N1CO [DMDMH, 1,3-Bis(hydroxymethyl)-5,5-dimethylimidazolidine-2,4-dione] | 420 |  |
| O=CC=O [Glyoxal, oxaldehyde] |  | 1800 |
